Tests used:
Conditions in all cases: third passage
[1] = tested on: 293 cells; experiment: Effect of replacement compounds on the growth of 293 cells in 293 SFM without transferrin, three passages; type: cell-based, human
Method: Semi-confluent adherent cultures of 293 Cells (ATCC, CRL 1573) are readily adapted to suspension culture. The cells are first detached with a solution of Trypsin-EDTA (0.05% Trypsin, 0.53 mM Na4EDTA), and then resuspended in conventional medium supplemented with 10% FBS to inhibit the trypsin. The resuspended cells are centrifuged at 200×g for five minutes.
The initial seeding density of the 293 cells after conversion to suspension culture is 1×10^6 cells/mL. The cells are shaken on a rotary shaker at 150 rpm in a 37° C. incubator equilibrated with 8% CO2-92% air. […] Because 293 cells have a tendency to aggregate, the cells can be vortexed vigorously for approximately 45 seconds to obtain a predominantly single cell suspension at the time of passaging and counting. After several passages in suspension culture, the maximum achievable density can be determined.
For replacement compound evaluation, 293 cells were established in 125 mL shaker flasks at an initial viable seeding density of 2×10^5 cells/mL in a final volume of 20 mL. All cultures were maintained at 37° C. in humidified air containing 8% CO2. To eliminate transferrin carry-over effects, cells were subcultured at 4 day intervals for a total of three passages. At each subculturing, cells were seeded at a density of 2×10^5 cells/mL. Positive control cultures contained 5 μg/mL human holo-transferrin while negative control cultures were established in the absence of either transferrin or replacement compound. Replacement compound stocks were prepared at 0.1M-0.2M in ddH2O and solubilized when necessary using 5N NaOH or HCl. Iron complexes were established using 0.2 M replacement compound and iron stocks mixed 1:1 (v/v) and incubated for 5-10 minutes at 22° C. All solutions containing replacement compounds were filter sterilized using a 0.22 μm Millex-GV filter prior to addition to transferrin and serum-free media.
Except where noted, replacement compounds were evaluated either alone or in combination with ferric chloride or ferrous sulfate at 25 μM, 50 μM and 100 μM. When used in combination, the replacement compounds were used in equimolar concentration with iron ions. Values in Table 4 represent the mean percentage of control growth for duplicate cultures determined at the third passage.
When added to the medium formulation uncomplexed, the replacement compound is listed alone, when added as a complex with a transition metal, the source of the transition metal is listed with the replacement compound.

[2] = tested on: Sp2/0 cells; experiment: Effect of replacement compounds on the growth of Sp2/0 cells in CD Hybridoma medium without transferrin, three passages; type: cell-based
Method: The ability of replacement compounds to support cellular growth in the absence of transferrin was evaluated using Sp2/0 cells maintained in CD Hybridoma medium (Invitrogen Corporation, Carlsbad, Calif.).
Stock cultures containing 5 μg/mL human holo-transferrin were prepared in CD Hybridoma medium. For replacement compound evaluation, Sp2/0 cells were established at an initial viable cell density of 0.5×10^5 cells/mL in stationary culture using 75 cm^2 tissue culture flasks in a final volume of 20 mL. All cultures were maintained at 37° C. in humidified air containing 8% CO2. To eliminate transferrin carry-over effects, cells were subcultured at the same seeding density at 4 day intervals for a total of three passages. Positive control cultures contained 5 μg/mL human holo-transferrin while negative control cultures were established in the absence of either transferrin or replacement compound. Replacement compound stocks were prepared at 0.1M-0.2M in ddH2O and solubilized when necessary using 5N NaOH or HCl. Iron complexes were established using 0.2M replacement compound and iron stocks mixed 1:1 (v/v) and incubated for 5-10 minutes at 22° C. All solutions containing replacement compounds were filter sterilized using a 0.22 μm Millex-GV filter prior to addition to transferrin and serum-free media.
Except where otherwise noted, replacement compounds were evaluated either alone or in combination with ferric chloride or ferrous sulfate at 25 μM, 50 μM and 100 μM. Values in the table represent the mean percentage of control growth for duplicate cultures determined at the third passage.
When added to the medium formulation un-complexed, the replacement compound is listed alone, when added as a complex with a transition metal, the source of the transition metal is listed with the replacement compound.

[3] = tested on: CHO cells; experiment: Effect of replacement compounds on the growth of CHO cells in CD CHO medium without transferrin, three passages; type: cell-based, Chinese hamster
Method: The ability of replacement compounds to support cellular growth in the absence of transferrin was evaluated using CHO cells maintained in CD CHO medium (Invitrogen Corporation, Carlsbad, Calif., the formulation of which is described in WO 98/08934). Stock cultures containing 5 μg/mL human holo-transferrin were prepared in CD CHO medium. For replacement compound evaluation, CHO cells were established in 125 mL shaker flasks at an initial viable seeding density of 1×10^5 cells/mL in a final volume of 20 mL. All cultures were maintained at 37° C. in humidified air containing 8% CO2. To eliminate transferrin carry-over effects, cells were subcultured at 4 day intervals for a total of three passages. Positive control cultures contained 5 μg/mL human holo-transferrin while negative control cultures were established in the absence of either transferrin or replacement compound. Replacement compound stocks were prepared at 0.1M-0.2M in ddH2O and solubilized when necessary using 5N NaOH or HCl. Iron complexes were established using 0.2M replacement compound and iron stocks mixed 1:1 (v/v) and incubated for 5-10 minutes at 22° C. All solutions containing replacement compounds were filter sterilized using a 0.22 μm Millex-GV filter prior to addition to transferrin and serum-free media.
Except where noted, replacement compounds were evaluated either alone or in combination with ferric chloride or ferrous sulfate at 25 μM, 50 μM and 100 μM. Values in the table represent the mean percentage of control growth for duplicate cultures determined at the third passage.
The ability of various replacement compounds to substitute for transferrin in the culture of CHO cells was determined. When added to the medium formulation un-complexed, the replacement compound is listed alone, when added as a complex with a transition metal, the source of the transition metal is listed with the metal binding compound.

[4] = 100 μM, control 5 μg/mL human holo-transferrin
[5] = 25 μM, control 5 μg/mL human holo-transferrin
[6] = 25 μM, control 5 μg/mL human holo-transferrin, iron equimolar where combined
[7] = 50 μM, control 5 μg/mL human holo-transferrin

2-Hydroxynicotinic Acid•Ferric Chloride
mean percentage of control growth [1, 4]: 0 percentage of control growth | mean percentage of control growth ([1]; 150 μM): 0 percentage of control growth | mean percentage of control growth ([1]; 200 μM): 99 percentage of control growth | mean percentage of control growth [2, 5]: 64 percentage of control growth | mean percentage of control growth ([2]; 50 μM): 82 percentage of control growth | mean percentage of control growth ([2]; 100 μM): 85 percentage of control growth

[Cl][Fe]([Cl])[Cl].c1ccc(-c2ccccn2)nc1 [2,2-Dipyridyl•Ferric Chloride]
mean percentage of control growth [1, 6]: 51 percentage of control growth | mean percentage of control growth [1, 7]: 96 percentage of control growth | mean percentage of control growth [1, 4]: 0 percentage of control growth

O=C(O)c1cccc(O)c1O.[Cl][Fe]([Cl])[Cl] [2,3-Dihydrobenzoic Acid•Ferric Chloride]
mean percentage of control growth [3, 5]: 71 percentage of control growth | mean percentage of control growth ([3]; 50 μM): 0 percentage of control growth | mean percentage of control growth ([3]; 100 μM): 0 percentage of control growth

O=C(O)c1ccccn1.O=S(=O)([O-])[O-].[Fe+2] [2-Pyridinecarboxylic Acid•Ferrous Sulfate]
mean percentage of control growth [1, 6]: 67 percentage of control growth | mean percentage of control growth [1, 7]: 48 percentage of control growth | mean percentage of control growth [1, 4]: 0 percentage of control growth

Cc1occc(=O)c1O.[Cl][Fe]([Cl])[Cl] [3-Hydroxy-2-Methyl-4-Pyrone•Ferric Chloride]
mean percentage of control growth [2, 5]: 60 percentage of control growth | mean percentage of control growth ([2]; 50 μM): 71 percentage of control growth | mean percentage of control growth ([2]; 100 μM): 75 percentage of control growth

O=[N+]([O-])c1ncccc1O.[Cl][Fe]([Cl])[Cl] [3-Hydroxy-2-Nitropyridine•Ferric Chloride]
mean percentage of control growth [2, 5]: 52 percentage of control growth | mean percentage of control growth ([2]; 50 μM): 62 percentage of control growth | mean percentage of control growth ([2]; 100 μM): 72 percentage of control growth

[O-][n+]1cccc(O)c1 [3-Hydroxypyridine-N-Oxide]
mean percentage of control growth [1, 6]: 4 percentage of control growth | mean percentage of control growth [1, 7]: 4 percentage of control growth | mean percentage of control growth [1, 4]: 4 percentage of control growth

CC(=O)N[C@@H](CS)C(=O)O.[Cl][Fe]([Cl])[Cl] [N-Acetyl-Cysteine•Ferric Chloride]
mean percentage of control growth [1, 6]: 88 percentage of control growth | mean percentage of control growth [1, 7]: 82 percentage of control growth | mean percentage of control growth [1, 4]: 52 percentage of control growth

O=C(O)CN(CC(=O)O)CC(=O)O [Nitriloacetic Acid]
mean percentage of control growth [2, 5]: 0 percentage of control growth | mean percentage of control growth ([2]; 50 μM): 0 percentage of control growth | mean percentage of control growth ([2]; 100 μM): 0 percentage of control growth

Acetohydroxamic Acid•Ferric Chloride
mean percentage of control growth [1, 6]: 83 percentage of control growth | mean percentage of control growth [1, 7]: 22 percentage of control growth | mean percentage of control growth [1, 4]: 0 percentage of control growth | mean percentage of control growth ([2]; 5 μM): 40 percentage of control growth | mean percentage of control growth ([2]; 10 μM): 48 percentage of control growth | mean percentage of control growth ([2]; 20 μM): 47 percentage of control growth

Asparagine•Ferric Chloride
mean percentage of control growth [2, 5]: 36 percentage of control growth | mean percentage of control growth ([2]; 50 μM): 51 percentage of control growth | mean percentage of control growth ([2]; 100 μM): 54 percentage of control growth

Aspartic Acid•Ferric Chloride
mean percentage of control growth [3, 5]: 77 percentage of control growth | mean percentage of control growth ([3]; 50 μM): 89 percentage of control growth | mean percentage of control growth ([3]; 100 μM): 112 percentage of control growth | mean percentage of control growth [1, 6]: 81 percentage of control growth | mean percentage of control growth [1, 7]: 86 percentage of control growth | mean percentage of control growth [1, 4]: 100 percentage of control growth

Glutamic Acid•Ferric Chloride
mean percentage of control growth [1, 6]: 102 percentage of control growth | mean percentage of control growth [1, 7]: 68 percentage of control growth | mean percentage of control growth [1, 4]: 83 percentage of control growth

Glutamine•Ferric Chloride
mean percentage of control growth [2, 5]: 36 percentage of control growth | mean percentage of control growth ([2]; 50 μM): 55 percentage of control growth | mean percentage of control growth ([2]; 100 μM): 65 percentage of control growth

Glycine•Ferric Chloride
mean percentage of control growth [1, 6]: 81 percentage of control growth | mean percentage of control growth [1, 7]: 71 percentage of control growth | mean percentage of control growth [1, 4]: 72 percentage of control growth | mean percentage of control growth [2, 5]: 34 percentage of control growth | mean percentage of control growth ([2]; 50 μM): 61 percentage of control growth | mean percentage of control growth ([2]; 100 μM): 56 percentage of control growth

Lysine•Ferric Chloride
mean percentage of control growth [3, 5]: 51 percentage of control growth | mean percentage of control growth ([3]; 50 μM): 79 percentage of control growth | mean percentage of control growth ([3]; 100 μM): 98 percentage of control growth

Mimosine•Ferric Chloride
mean percentage of control growth [1, 6]: 64 percentage of control growth | mean percentage of control growth [1, 7]: 55 percentage of control growth | mean percentage of control growth [1, 4]: 80 percentage of control growth

Morpholine•Ferric Chloride
mean percentage of control growth [2, 5]: 54 percentage of control growth | mean percentage of control growth ([2]; 50 μM): 64 percentage of control growth | mean percentage of control growth ([2]; 100 μM): 81 percentage of control growth

Myo-lnositol•Ferric Chloride
mean percentage of control growth [1, 6]: 79 percentage of control growth | mean percentage of control growth [1, 7]: 87 percentage of control growth | mean percentage of control growth [1, 4]: 85 percentage of control growth

Nitriloacetic Acid•Ferrous Sulfate
mean percentage of control growth [1, 6]: 75 percentage of control growth | mean percentage of control growth [1, 7]: 95 percentage of control growth | mean percentage of control growth [1, 4]: 0 percentage of control growth

Sorbitol•Ferrous Sulfate
mean percentage of control growth [1, 6]: 58 percentage of control growth | mean percentage of control growth [1, 7]: 69 percentage of control growth | mean percentage of control growth [1, 4]: 83 percentage of control growth

— US9879243B2, “Culture medium for cell growth and transfection” (LIFE TECHNOLOGIES CORPORATION, priority 2001, dated 2018)
